One block for each molecule: values may come before it.
Experiments:
[1] = biological target: T1, human topoisomerase I (topo70) in covalent complex with duplex 22 mer DNA (Homo sapiens, UniProt P11387); assay: X-ray crystal structure of ternary topo70-DNA-compound complex; type: binding
T1 construct: residues 175 to 765 of the natural protein plus an N-terminal initiating methionine; initiating methionine (one added Met before residue 175) (N); made in house; host or cells: insect cells (recombinant baculovirus, pFastBac-topo70 wt)
T1 sequence (P11387 175-765): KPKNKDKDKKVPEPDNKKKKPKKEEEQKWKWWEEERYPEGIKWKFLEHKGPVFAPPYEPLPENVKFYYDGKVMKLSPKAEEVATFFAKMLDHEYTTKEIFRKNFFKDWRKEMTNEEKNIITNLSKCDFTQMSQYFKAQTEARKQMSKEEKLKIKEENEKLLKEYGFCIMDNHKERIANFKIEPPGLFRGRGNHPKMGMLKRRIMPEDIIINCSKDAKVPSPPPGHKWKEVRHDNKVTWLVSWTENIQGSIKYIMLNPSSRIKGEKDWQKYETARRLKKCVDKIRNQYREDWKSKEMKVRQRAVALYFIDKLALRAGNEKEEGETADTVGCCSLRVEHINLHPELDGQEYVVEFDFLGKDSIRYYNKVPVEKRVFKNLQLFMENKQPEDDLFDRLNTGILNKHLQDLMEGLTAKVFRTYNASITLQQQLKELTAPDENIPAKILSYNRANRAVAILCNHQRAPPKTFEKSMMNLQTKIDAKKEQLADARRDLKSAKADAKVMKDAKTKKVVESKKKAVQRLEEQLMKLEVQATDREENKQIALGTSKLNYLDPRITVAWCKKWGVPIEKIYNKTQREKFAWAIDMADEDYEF

[2] = Giovanella et al., Science 1989; cited from earlier work
Topo I = settings: Hsiang et al., Cancer Res 1989; cited from earlier work
[3] = biological target: T2, reconstituted "linker-less" human Topo I (Homo sapiens, UniProt P11387); settings: Stewart et al., J. Biol. Chem. 1999; cited from earlier work
T2 sequence (P11387 175-659 limits assumed): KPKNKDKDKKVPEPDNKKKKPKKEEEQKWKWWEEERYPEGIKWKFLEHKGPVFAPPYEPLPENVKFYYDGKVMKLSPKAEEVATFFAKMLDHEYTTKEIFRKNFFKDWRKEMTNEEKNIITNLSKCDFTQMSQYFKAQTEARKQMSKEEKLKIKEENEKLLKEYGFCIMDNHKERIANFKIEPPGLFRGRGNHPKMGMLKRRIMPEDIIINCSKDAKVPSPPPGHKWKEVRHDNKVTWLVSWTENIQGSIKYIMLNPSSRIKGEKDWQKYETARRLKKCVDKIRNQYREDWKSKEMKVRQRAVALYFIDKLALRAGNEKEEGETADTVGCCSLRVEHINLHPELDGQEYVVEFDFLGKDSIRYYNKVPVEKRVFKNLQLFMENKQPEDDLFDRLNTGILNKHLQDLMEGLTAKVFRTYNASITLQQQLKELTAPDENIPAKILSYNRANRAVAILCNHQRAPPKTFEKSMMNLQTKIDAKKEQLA
T2 sequence (P11387 713-765 limits assumed): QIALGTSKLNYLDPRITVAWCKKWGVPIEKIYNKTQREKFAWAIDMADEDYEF

[4] = unrestrained full matrix refinement of occupancy factors, standard uncertainty 7%

SMILES: CCOc1ccc(-c2nc3ccc(-c4nc5ccc(N6CCN(C)CC6)cc5[nH]4)cc3[nH]2)cc1 [Hoecsht-33342]
binding site relative to camptothecin ([1]; Form 11 structure): do not bind at the same site as camptothecin

SMILES: CC[C@@](O)(C(=O)[O-])c1cc2n(c(=O)c1CO)Cc1cc3ccccc3nc1-2.[Na+] [sodium carboxylate form of camptothecin]
activity in in vivo cell killing assays [2]: does have
Topo I inhibitory activity in vitro (Topo I): does have Topo I inhibitory activity in vitro

binding mode in the crystal structure ([1]; Form 9-TTC, Form 9-AG260, Form 10 structures): intercalate at the site of DNA cleavage
occupancy of closed lactone form in the bound complex [1, 4]: 63%
occupancy of open carboxylate form in the bound complex [1, 4]: 37%
SMILES: CC[C@@]1(O)C(=O)OCc2c1cc1n(c2=O)Cc2cc3c(CN(C)C)c(O)ccc3nc2-1 [topotecan]
relaxation-inhibition effect on linker-less Topo I [3]: resistant to the relaxation-inhibition effect

Reference: patent US20050003502A1 (priority 2000, published 2005)
